Experimental data taken from US20260337211A1, “IP5 SUBSTITUTED COMPOUNDS” (SANIFIT THERAPEUTICS, S.A., priority 2022, published 2026).

Test: In vitro inhibition of calcium phosphate crystallization in human plasma (spectrophotometric, 550 nm)
Assay type: biochemical
Settings: 0-100 μM compound, 1.5 mM phosphate and 12.5 mM calcium, pH 7.4, 30 min at rt, slope between 6 and 24 min, read-out: Relative Potency (EC50)
Procedure: The in vitro efficacy of the IP5 substituted compounds (e.g., Compounds 1 to 32) of the invention on the inhibition of calcium phosphate crystallization in human plasma samples was evaluated according to a spectrophotometric assay previously described in the art (Ferrer M, et al., Sci Rep 2017; 7:6858, doi:10.1038/s41598-017-07203-x).
A 96-well plate was employed. Plasma was spiked (1 volume of the IP5 substituted compounds of the invention per 19 volumes of plasma) with increasing concentrations of the derivatives in the range of 0-100 μM. Plasma was then centrifuged at 10,000 g at rt and subsequently mixed with a mixture of 5 mM hydrogen phosphate and 41.67 mM calcium to attain final concentrations of 1.5 mM phosphate and 12.5 mM calcium, respectively. All reagent solutions were filtered, and pH adjusted to 7.4.
Crystallization of calcium phosphate was monitored spectrophotometrically for 30 min at rt by measuring the increments in absorbance at 550 nm using the Biotek Powerwave XS Microplate spectrophotometer (BioTek Instruments, Inc., Winooski, VT, US). The plate was incubated at rt in an orbital shaker and absorbance measured every 3 min.
Plasma crystallization was assessed based on slope measurement in the linear range between 6 and 24 min from plots of increase in absorbance versus logarithm of time. The efficacy of different myo-inositol phosphates derivatives in preventing in vitro formation of calcium phosphate crystals was assessed in human plasma samples using the slopes obtained between 6- and 24-min. Inhibition of crystallization was measured by comparing the slopes of the control sample (blank plasma) with those of samples containing the inhibitor as shown below: […]

For “rac-1-O-(5-(4-(Methoxymethyl)-1H-1,2,3-triazol-1-yl)pentyl)-myo-inositol-2,3,4,5,6-pentakis(phosphate) decasodium salt [Compound 52]”, which EC50 is on record?
Its EC50 is 5 to 10 µM.

Which EC50 does the source give for “rac-1-O-(5-Acetamidopentyl)-myo-inositol-2,3,4,5,6-pentakis(phosphate) decasodium salt [Compound 49]” here?
Its EC50 is 5 to 10 µM.

With “rac-1-O-(9-Methoxynonyl)-myo-inositol-2,3,4,5,6-pentakis(phosphate) decasodium salt [Compound 47]” as the substance, how does the EC50 read?
The EC50 was no more than 5 µM.

With “rac-1-O-((1-(2-(Metoxycarbonyl)ethyl)-1H-1,2,3-triazol-4-yl)methyl)-myo-inositol-2,3,4,5,6-pentakis(phosphate) undecasodium salt [Compound 53]” as the substance, how does the EC50 read?
The EC50 was 5 to 10 µM.

For “rac-1-O-Propyl-myo-inositol-2,3,4,5,6-pentakis(phosphate) decasodium salt [Compound 32]”, which EC50 is on record?
The EC50 was no more than 5 µM.

Which EC50 does the source give for “rac-4-O-(2-(4-Acetylpiperazin-1-yl)ethyl)-myo-inositol-1,2,3,5,6-pentakis(phosphate) decasodium salt [Compound 5]” here?
Its EC50 is no more than 5 µM.

Which EC50 does the source give for “rac-4-O-(5-Acetamidopentyl)-myo-inositol-1,2,3,5,6-pentakis(phosphate) decasodium salt [Compound 19]” here?
Its EC50 is 5 to 10 µM.

For “rac-4-O-(5-Hydroxypentyl)-myo-inositol-1,2,3,5,6-pentakis(phosphate) decasodium salt [Compound 2]”, which EC50 is on record?
The EC50 was no more than 5 µM.

Which EC50 does the source give for “rac-4-O-(5-Methoxypentyl)-myo-inositol-1,2,3,5,6-pentakis(phosphate) decasodium salt [Compound 3]” here?
Its EC50 is no more than 5 µM.

Which EC50 does the source give for “rac-4-O-(6,6,6-Trifluorohexyl)-myo-inositol-1,2,3,5,6-pentakis(phosphate) decasodium salt [Compound 13]” here?
The EC50 was no more than 5 µM.

For “rac-4-O-(6-(4-(carboxy)-1H-1,2,3-triazol-1-yl)hexyl)-myo-inositol-1,2,3,5,6-pentakis(phosphate) undecasodium salt [Compound 26]”, which EC50 is on record?
The EC50 was greater than 10 µM.

For “rac-4-O-(6-Aminohexyl)-myo-inositol-1,2,3,5,6-pentakis(phosphate) decasodium salt [Compound 28]”, which EC50 is on record?
Its EC50 is no more than 5 µM.

With “rac-4-O-(7-Methoxyheptyl)-myo-inositol-1,2,3,5,6-pentakis(phosphate) decasodium salt [Compound 23]” as the substance, how does the EC50 read?
Its EC50 is 5 to 10 µM.

For “rac-4-O-(10-Carboxyldecyl)-myo-inositol-1,2,3,5,6-pentakis(phosphate) undecasodium salt [Compound 20]”, which EC50 is on record?
The EC50 was greater than 10 µM.

Which EC50 does the source give for “rac-4-O-(10-Hydroxydecyl)-myo-inositol-1,2,3,5,6-pentakis(phosphate) decasodium salt [Compound 21]” here?
Its EC50 is greater than 10 µM.

For “rac-4-O-Methyl-myo-inositol-1,2,3,5,6-pentakis(phosphate) decasodium salt [Compound 22]”, which EC50 is on record?
Its EC50 is 5 to 10 µM.

For “rac-4-O-Pentyl-myo-inositol-1,2,3,5,6-pentakis(phosphate) decasodium salt [Compound 1]”, which EC50 is on record?
The EC50 was no more than 5 µM.

With “rac-4-O-Propyl-myo-inositol-1,2,3,5,6-pentakis(phosphate) decasodium salt [Compound 24]” as the substance, how does the EC50 read?
The EC50 was no more than 5 µM.
